Test results taken from US20250041245A1, “ENDOXIFEN FOR TREATMENT OF CANCERS” (Atossa Therapeutics, Inc., priority 2021, published 2025).
“And” between values parts separate entries of the source, which are not always exact repeats. Identical values can stand only once. “Also recorded” adds a separate entry of the source.

How the values were obtained:
Format in all cases: cell-based, human
[1] = system: patient-derived tumor organoids (PDTOs), breast cancer; experiment: Endoxifen screen in patient-derived tumor organoids (PARIS Test): breast cancer; set-up: key to Personalization Category: Personalization categories range from High, Good, Moderate, Low, to None; Personalization categories range from High, Good, Moderate, Low, to None; Personalization categories range from High, Good, Moderate, Low, to None; Personalization categories range from High, Good, Moderate, Low, to None; Personalization categories range from High, Good, Moderate, Low, to None; key to Sensitivity Category: Sensitivity categories range from High, Good, Moderate, Low, to None; Sensitivity categories range from High, Good, Moderate, Low, to None; Sensitivity categories range from High, Good, Moderate, Low, to None; Sensitivity categories range from High, Good, Moderate, Low, to None; Sensitivity categories range from High, Good, Moderate, Low, to None; conditions: each line one patient sample
Protocol: (§1) This example describes screening endoxifen in patient-derived tumor organoids. Endoxifen was tested as a single agent on tumor organoids derived from patients diagnosed with various cancer types using a personalized cancer treatment screening assay (PARIS© Test, SEngine Precision Medicine). The screen utilized patient-derived tumor organoids (PDTOs) along with high-throughput drug screening and machine learning-guided data analysis to quantify the efficacy of endoxifen against samples derived from individual patients diagnosed with various cancer types. PDTOs are self-organizing, three-dimensional organoid structures that recapitulate structural, functional, and genomic aspects of in vivo organs. The PDTOs were grown in culture from patient tumor biopsy samples.
(§2) Fresh patient biopsy samples received following surgery were cleaned and purified. Immune cells (e.g., lymphocytes, blood cells), cancer-associated fibroblasts, and other non-tumor cells were removed to establish pure PDTOs for endoxifen testing. The tumor organoids were grown and expanded by supplying organ- and patient-specific growth factors and nutrients. The PDTOs were treated with increasing concentrations of endoxifen ranging from about 30 nM to about 10 μM, and the drug response was measured using a luminescence readout. A lower luminescence was indicative of a stronger drug response.
(§3) The results were analyzed using a “SEngine Precision Medicine” (SPM) scoring system to assess the sensitivity and personalization of each tumor organoid to endoxifen. The SPM score correlates with clinical outcomes, such that a higher SPM score for a specific PDTO-drug combination predicts a more favorable clinical outcome following treatment of the corresponding patient with the tested drug.
(§4) This example describes testing endoxifen efficacy against 17 distinct cancer types in patient-derived tumor organoids (PDTOs). Screening of PDTOs was performed as described in EXAMPLE 1. For each PDTO sample, the drug response was measured using a luminescent readout over a range of endoxifen concentrations. The drug response was evaluated based on the area under the fitted dose response curve (AUC) and the SPM scoring system. AUC values were normalized for each PDTO. Briefly, data points at each drug concentration were first normalized to a negative control, then a dose response drug curve was approximated using a four-parameter logistic model fitted to the normalized data points. The area under the curve was calculated from the normalized curve. Normalization allowed for comparison of AUC values between patient samples. The SPM scores were based on machine learning models that incorporate values for how well the drug kill patient cells (sensitivity metric), the relative drug responses of a patient to all other patients in a sample database (personalization metric), and knowledge of clinical outcomes for patients that had been evaluated with the personalized cancer screening assay (PARIS® Test, SEngine Precision Medicine).
(§5) The SPM scoring system evaluated whether a PDTO was unresponsive or responsive to endoxifen and the degree of drug response for PDTOs that were responsive to endoxifen. […] The sensitivity category was determined from the sensitivity metric and is a measure of overall cell death of a patient's cells in response to endoxifen at six concentrations. […]

[2] = system: patient-derived tumor organoids (PDTOs), myxofibrosarcoma; experiment: Endoxifen screen in PDTOs: myxofibrosarcoma; set-up: key to Personalization Category: Personalization categories range from High, Good, Moderate, Low, to None; Personalization categories range from High, Good, Moderate, Low, to None; Personalization categories range from High, Good, Moderate, Low, to None; Personalization categories range from High, Good, Moderate, Low, to None; Personalization categories range from High, Good, Moderate, Low, to None; key to Sensitivity Category: Sensitivity categories range from High, Good, Moderate, Low, to None; Sensitivity categories range from High, Good, Moderate, Low, to None; Sensitivity categories range from High, Good, Moderate, Low, to None; Sensitivity categories range from High, Good, Moderate, Low, to None; Sensitivity categories range from High, Good, Moderate, Low, to None; AUC: unit not given beside the values
Protocol: as §1, §2, §3, §4, §5

[3] = system: patient-derived tumor organoids (PDTOs), pancreatic ductal adenocarcinoma; experiment: Endoxifen screen in PDTOs: pancreatic ductal adenocarcinoma; set-up: key to Personalization Category: Personalization categories range from High, Good, Moderate, Low, to None; Personalization categories range from High, Good, Moderate, Low, to None; Personalization categories range from High, Good, Moderate, Low, to None; Personalization categories range from High, Good, Moderate, Low, to None; Personalization categories range from High, Good, Moderate, Low, to None; key to Sensitivity Category: Sensitivity categories range from High, Good, Moderate, Low, to None; Sensitivity categories range from High, Good, Moderate, Low, to None; Sensitivity categories range from High, Good, Moderate, Low, to None; Sensitivity categories range from High, Good, Moderate, Low, to None; Sensitivity categories range from High, Good, Moderate, Low, to None; AUC: unit not given beside the values; conditions: each line one patient sample; for IC50: four-parameter logistic fit
Protocol: as §1, §2, §3, §4
The SPM scoring system evaluated whether a PDTO was unresponsive or responsive to endoxifen and the degree of drug response for PDTOs that were responsive to endoxifen. The SPM scoring system generated metrics an SPM score, predictive of clinical outcome, overall drug response (response category), drug sensitivity (sensitivity category), and drug personalization (personalization category). SPM scores ranged from 1-15, corresponding to the following drug response categories: no response (SPM 1-8), low response (SPM 9), moderate response (SPM 10-11), good response (SPM 12-13), and exceptional response (SPM 14-15). […] Moderate to good drug responses (SPM 10-13) may indicate that a drug has clinical relevance, possibly in combination with other drugs. The sensitivity category was determined from the sensitivity metric and is a measure of overall cell death of a patient's cells in response to endoxifen at six concentrations. […]

[4] = normalized area under fitted dose response curve

`CC/C(=C(\c1ccc(O)cc1)c1ccc(OCCNC)cc1)c1ccccc1` [Endoxifen, 4-hydroxy-N-desmethyltamoxifen] was tested, and the “Response Category” value [1] was “Moderate (moderate response (SPM 10-11)); also recorded: None (no response (SPM 1-8)); also recorded: Low (low response (SPM 9)); also recorded: Good (good response (SPM 12-13)); also recorded: Exceptional (exceptional response (SPM 14-15))”, the AUC [1, 4] was 0.8248 and 0.9311 and 0.8639 and 0.6798 and 0.8079 and 0.9835 and 0.8609 and 0.8997 and 0.8847 and 0.9811 and 0.9320 and 0.9911 and 0.9378 and 0.4774 and 0.5912 and the “Sensitivity Category” value ([1]; overall cell death at six concentrations) was “Low and None and Moderate and Good”. For the same compound, the “Personalization Category” value ([1]; response relative to other PDTOs) was “Moderate and None and Low and High and Good”, the “SPM Score” value ([1]; score range 1-15) was 10 and 1 (6×) and 9 (3×) and 13 (2×) and 11 and 4 and 14 and the IC50 ([2]; Homo sapiens, patient 1, four-parameter logistic fit) was 7.25 µM. For the same compound, the “Personalization Category” value ([2]; patient 1) was “None”, the “Sensitivity Category” value ([2]; patient 1) was “None” and the AUC ([2]; patient 1, normalized area under fitted dose response curve) was 0.9384. For the same compound, the “SPM Score” value ([2]; patient 1, score range 1-15) was 1, the IC50 ([3]; Homo sapiens) was 4.47 µM and the “Personalization Category” value [3] was “Good and Low and None”. The “Response Category” value [3] was “Moderate (moderate response (SPM 10-11)); also recorded: Low (low response (SPM 9)); also recorded: None (no response (SPM 1-8))”, the “Sensitivity Category” value [3] was “Low and None” and the IC50 [3] was 5.83 µM. The AUC [3, 4] was 0.8283 and 0.8839 and 1.1358 and the “SPM Score” value ([3]; score range 1-15) was 11 and 9 and 1.
